Results reported in US20040200144A1, “Plant growth regulator and a method of producing the regulator” (Dainichiseika Color & Chemicals Mfg. Co., Ltd., priority 2003, published 2004).

Legend:
Format in all cases: in vivo
[1] = tested on: watermelon young plants; experiment: Dwarfing test of watermelon young plant; settings: for Plant Height / Dwarfing Rate: 5 ml per cell on 7th day, measured 27th day; for Dwarfing Rate: vs comparative group
Experimental: After seeding, the pot was placed in the same greenhouse as described above to sprout. Subsequently, on the 5th day, the cinnamic aqueous acid solutions were added to the nursery soil in the joint pots. One of the joint pots (24 cells) was prepared as a 0.05% cinnamic acid aqueous solution addition group, and 5 ml of the 0.05% cinnamic acid aqueous solution was added to the nursery soil of each cell. Another one of the join pots was prepared as a 0.2% cinnamic acid aqueous solution addition group, and 5 ml of the 0.2% cinnamic acid aqueous solution was added to the nursery soil of each cell. […] Subsequently, the cultivation of carrot young plants in each group was continued under general conditions. On the 27th day, the heights of young plants in each group were measured, the dwarfing rate (%) was calculated, and the dwarfing effect of cinnamic acid aqueous solution on carrot young plants was examined. From the results in Table 5, it became evident that the 0.05% and 0.2% cinnamic acid aqueous solutions are effective in dwarfing carrot young plants. In the same way as in Example 5 except that seeds of cauliflower were sowed, the cinnamic acid solutions were added to the nursery soil in the joint pot on the 4th day, and that heights of young plants in each group were measured on the 20th day, the dwarfing effect of cinnamic acid aqueous solution on cauliflower young plants was examined. From the results in Table 12, it became evident that the cinnamic acid aqueous solutions are effective in dwarfing cauliflower young plants. In the same way as in Example 12 except that seeds of tomato were sowed, and that the cinnamic acid solutions were added to the nursery soil of the joint pot on the 7th day, the dwarfing effect of cinnamic acid aqueous solution on tomato young plants was examined. From the results in Table 17, it became evident that the cinnamic acid aqueous solutions are effective in dwarfing tomato young plants. In the same way as in Example 17 except that seeds of watermelon were sowed, and that plant heights were measured on the 27th day, the dwarfing effect of cinnamic acid aqueous solution on watermelon young plants was examined. From the results in Table 21, it became evident that the cinnamic acid aqueous solutions are effective in dwarfing watermelon young plants.

[2] = tested on: newmelon young plants; experiment: Dwarfing test of newmelon young plant; settings: for Plant Height / Dwarfing Rate: 5 ml per cell on 7th day, measured 27th day; for Dwarfing Rate: vs comparative group
Experimental: (§1) 50 g of sodium tripolyphosphate was dissolved in 400 ml of distilled water at 80° C., 17.5 g of cinnamic acid was added to the sodium tripolyphosphate solution and dissolved by stirring, the resultant solution was diluted with distilled water until the total volume of solution was 500 ml, and thus 3.5% cinnamic acid aqueous solution (pH 6.5) was prepared. The aqueous solution was further diluted with distilled water 70 times or 17.5 times, and 0.05% cinnamic acid aqueous solution and 0.2% cinnamic acid aqueous solution were prepared, respectively.
(§2) Nursery soil for house use was filled into paper joint pots (each with 24 cells: 34×43×50 mm/cell), water was sufficiently given to the soil, and seeds of carrots were sowed. After seeding, the pot was placed in the same greenhouse as described above to sprout. Subsequently, on the 5th day, the cinnamic aqueous acid solutions were added to the nursery soil in the joint pots. One of the joint pots (24 cells) was prepared as a 0.05% cinnamic acid aqueous solution addition group, and 5 ml of the 0.05% cinnamic acid aqueous solution was added to the nursery soil of each cell. Another one of the join pots was prepared as a 0.2% cinnamic acid aqueous solution addition group, and 5 ml of the 0.2% cinnamic acid aqueous solution was added to the nursery soil of each cell. The other one of the joint pots was prepared as a comparative group in which 5 ml of water is added to each cell, instead of the cinnamic acid aqueous solution. Subsequently, the cultivation of carrot young plants in each group was continued under general conditions. On the 27th day, the heights of young plants in each group were measured, the dwarfing rate (%) was calculated, and the dwarfing effect of cinnamic acid aqueous solution on carrot young plants was examined. […].
In the same way as in Example 12 except that seeds of tomato were sowed, and that the cinnamic acid solutions were added to the nursery soil of the joint pot on the 7th day, the dwarfing effect of cinnamic acid aqueous solution on tomato young plants was examined. […].
In the same way as in Example 17 except that seeds of watermelon were sowed, and that plant heights were measured on the 27th day, the dwarfing effect of cinnamic acid aqueous solution on watermelon young plants was examined. […].
In the same way as in Example 21 except that seeds of newmelon were sowed, the dwarfing effect of cinnamic acid aqueous solution on newmelon young plants was examined. […]

[3] = tested on: turnip young plants; experiment: Dwarfing test of turnip young plant; settings: for Plant Height / Dwarfing Rate: 5 ml per cell on 4th day, measured 20th day; for Dwarfing Rate: vs comparative group
Experimental: as §1, §2
In the same way as in Example 12 except that seeds of color turnip were sowed, the dwarfing effect of cinnamic acid aqueous solution on turnip young plants was examined. […]

[4] = tested on: onion young plants; experiment: Dwarfing test of onion young plant; settings: for Plant Height / Dwarfing Rate: 5 ml per cell on 5th day, measured 27th day; for Dwarfing Rate: vs comparative group
Experimental: as §1, §2
In the same way as in Example 5 except that seeds of onion were sowed, the dwarfing effect of cinnamic acid aqueous solution on onion young plants was examined. […]

[5] = tested on: radish young plants; experiment: Dwarfing test of radish young plant; settings: for Plant Height / Dwarfing Rate: 5 ml per cell on 4th day, measured 20th day; for Dwarfing Rate: vs comparative group
Experimental: as §1, §2
In the same way as in Example 12 except that seeds of radish were sowed, the dwarfing effect of cinnamic acid aqueous solution on radish young plants was examined. […]

O=C(O)C=Cc1ccccc1 [cinnamic acid]
Plant Height ([1]; 0.05% aqueous solution): 9.3 cm | Dwarfing Rate ([1]; 0.05% aqueous solution): 15.5% | Plant Height ([1]; 0.2% aqueous solution): 7.9 cm | Dwarfing Rate ([1]; 0.2% aqueous solution): 28.2% | dwarfing effect ([1]; watermelon young plants, 0.05% and 0.2% aqueous solutions): effective | Plant Height ([2]; 0.05% aqueous solution): 7.3 cm | Dwarfing Rate ([2]; 0.05% aqueous solution): 6.4% | Plant Height ([2]; 0.2% aqueous solution): 4.9 cm | Dwarfing Rate ([2]; 0.2% aqueous solution): 37.2% | dwarfing effect ([2]; newmelon young plants, 0.05% and 0.2% aqueous solutions): effective | Plant Height ([3]; 0.05% aqueous solution): 7.0 cm | Dwarfing Rate ([3]; 0.05% aqueous solution): 23.1% | Plant Height ([3]; 0.2% aqueous solution): 6.0 cm | Dwarfing Rate ([3]; 0.2% aqueous solution): 34.1% | dwarfing effect ([3]; turnip young plants, 0.05% and 0.2% aqueous solutions): effective | Plant Height ([4]; 0.05% aqueous solution): 8.0 cm | Dwarfing Rate ([4]; 0.05% aqueous solution): 15.8% | Plant Height ([4]; 0.2% aqueous solution): 7.5 cm | Dwarfing Rate ([4]; 0.2% aqueous solution): 21.1% | dwarfing effect ([4]; onion young plants, 0.05% and 0.2% aqueous solutions): effective | Plant Height ([5]; 0.05% aqueous solution): 8.1 cm | Dwarfing Rate ([5]; 0.05% aqueous solution): 11.0% | Plant Height ([5]; 0.2% aqueous solution): 7.1 cm | Dwarfing Rate ([5]; 0.2% aqueous solution): 22.0% | dwarfing effect ([5]; radish young plants, 0.05% and 0.2% aqueous solutions): effective
